Reference: the NIST ThermoML archive (doi:10.1021/je100484n)
± gives the expanded uncertainty stated by the source.

Test: xn = mol fraction of the nth substance listed
Conditions: 101 kPa, Liquid

CC(C)(C)O [2-methylpropan-2-ol] + CCCCCCC
mass density [kg/m3]
Conditions | 303.15 K | 308.15 K | 313.15 K | 318.15 K | 323.15 K
x1 = 0.1006 | 679.898 ± 0.65 | 675.406 ± 0.66 | 670.867 ± 0.66 | 666.278 ± 0.67 | 661.645 ± 0.68
x1 = 0.1502 | 682.8 ± 0.64 | 678.262 ± 0.65 | 673.669 ± 0.66 | 669.017 ± 0.66 | 664.315 ± 0.67
x1 = 0.2 | 685.899 ± 0.64 | 681.327 ± 0.64 | 676.692 ± 0.65 | 671.995 ± 0.66 | 667.235 ± 0.67
x1 = 0.3 | 692.705 ± 0.63 | 688.078 ± 0.63 | 683.382 ± 0.64 | 678.612 ± 0.65 | 673.771 ± 0.65
x1 = 0.4 | 700.298 ± 0.61 | 695.628 ± 0.62 | 690.882 ± 0.63 | 686.056 ± 0.63 | 681.144 ± 0.64
x1 = 0.4998 | 708.705 ± 0.6 | 703.995 ± 0.61 | 699.207 ± 0.61 | 694.329 ± 0.62 | 689.366 ± 0.63
x1 = 0.6 | 718.327 ± 0.58 | 713.568 ± 0.59 | 708.726 ± 0.6 | 703.799 ± 0.6 | 698.776 ± 0.61
x1 = 0.7 | 729.448 ± 0.56 | 724.603 ± 0.57 | 719.685 ± 0.58 | 714.683 ± 0.59 | 709.587 ± 0.59
x1 = 0.7998 | 742.308 ± 0.54 | 737.338 ± 0.55 | 732.305 ± 0.56 | 727.201 ± 0.57 | 721.991 ± 0.57
x1 = 0.8479 | 749.34 ± 0.53 | 744.297 ± 0.54 | 739.195 ± 0.55 | 734.015 ± 0.56 | 728.76 ± 0.56
x1 = 0.8998 | 757.564 ± 0.52 | 752.448 ± 0.53 | 747.271 ± 0.54 | 742.022 ± 0.54 | 736.693 ± 0.55
x1 = 0.9499 | 766.164 ± 0.51 | 760.994 ± 0.51 | 755.749 ± 0.52 | 750.424 ± 0.53 | 745.02 ± 0.54
x1 = 1 | 775.412 ± 0.49 | 770.193 ± 0.5 | 764.884 ± 0.51 | 759.488 ± 0.52 | 754.015 ± 0.52
